Test results published in PMC3700072, “Synthesis, Anti-Inflammatory, and Ulcerogenicity Studies of Novel Substituted and Fused Pyrazolo[3,4-d]pyrimidin-4-ones” (Scientia Pharmaceutica, 2013).
Several values for one entry are separate records, joined by “and”; a condition that tells them apart may be missing. Equal entries are not always repeated.

Legend:
[1] = system: carrageenan-induced rat paw edema; test: carrageenan-induced rat paw edema test; type: in vivo; parameters: Mean increase in edema weight ± SEM: unit not given here; settings: rats, 10 mg/kg intraperitoneally, 4 h after carrageenan; for inhibition in vivo at 10 mg/kg / change in vivo at 10 mg/kg: Rattus norvegicus, ip; for inhibition in vivo at 10 mg/kg: 4 h, read-out: %Inhibition of Paw edema from control group (edema reduction); for change in vivo at 10 mg/kg / Mean increase in edema weight ± SEM: N = 6; for change in vivo at 10 mg/kg: read-out: Mean % increase in edema weight ± SEM; for % Activity relative to indomethacine: indomethacin = 100
Experimental: The in vivo anti-inflammatory effects of the newly synthesized pyrazolopyrimidine derivatives were assessed by utilizing the functional model of carrageenan-induced rat paw edema using indomethacin as the reference drug. Mean changes and the percent increase in paw edema weight of animals pretreated with the tested compounds after 4 h from the induction of inflammation were measured, together with the percent inhibition of induced rat paw edema by the tested compounds. The anti-inflammatory activity (relative potency) of the tested compounds relative to that of indomethacin was also calculated (Table 1) (Fig. 2).
The in vivo carrageenan-induced rat paw edema model of inflammation was used to evaluate the anti-inflammatory properties of the newly synthesized compounds according to the previously reported Winter et al. method.
Adult male albino rats weighing 100–120 g (obtained from the animal house of the department of Physiology, Faculty of Medicine, Alexandria University) were used throughout the work. Animals were randomly divided into groups of six rats each. They were kept in an animal house under standard conditions of light and temperature with free access to food and water ad libitum and allowed to be accustomed to their environment for two days before testing.
Indomethacin, used as a reference standard (Khahira for Pharmaceutical and Chemical Industry, Cairo, Egypt), and the test compounds were dissolved in DMSO and were injected intraperitoneally at a dose level of 10 mg/kg body weight. Control animals, on the other hand, were intraperitoneally injected with appropriate volume of DMSO only. After one hour of the above treatment, an inflammatory edema in the right hind paw of all animals was induced by subcutaneous injection of 0.05 ml of freshly prepared solution of 1% carrageenan (λ-Carrageenan Sigma–Aldrich Corp. St. Louis, MO, USA) in sterile normal saline (0.9%), into the subplantar tissue of the paw. An equal volume of saline was injected to the left hind paw and served as internal control for the degree of inflammation in the right hind paw.
Four hours after carrageenan injection, animals were decapitated and both the right and left hind paws were excised at a standard point and weighed. The difference in weight from edema between right and left paws was taken as a measure of the degree of inflammation for each animal. The mean increase in weight of the carrageenan-injected paw over the other paw in each group was measured and the percent increase of edema was calculated. The anti-inflammatory efficacy of the tested compounds was assessed by comparing the change in paw weight in the treated animals with that in control animals (treated with DMSO only) and expressed as a percent inhibition of the edema (percent protection against inflammation), calculated according to the following equation: % Inhibition of edema=(1-Wt/Wc)×100 where Wt is the mean increase in paw weight in rats treated with the test compounds and Wc is the mean increase in paw weight in the control group. The anti-inflammatory activity of the test compounds relative to that of indomethacin was also determined (Table 2).
In the anti-inflammatory study, data obtained were expressed as the mean ± standard error (SEM). Statistical significance was determined by comparing the values of the test compounds and the standard with those obtained from the control group of animals using One-way ANOVA with Dunnett’s post-test using the GraphPad Prism version 3.00 for Windows (GraphPad Software, San Diego California USA, www.graphpad.com). The difference in results was considered significant if P < 0.001.

gastric mucosa of rats = test: gastric ulcerogenic effect (Meshali's method, ulcer index by Robert's method); type: in vivo, rat; parameters: key to Ulcer index: ulcer index = %incidence/10 + avg no. of ulcers + avg severity (0–4); settings: for % ulceration in the population of test animals: oral 10 mg/kg; for Average No. of ulcer / % Incidence/10 / % Ulcerogenicity relative to indomethacin / Average severity / Ulcer index: oral 10 mg/kg on three days; for % Incidence/10: 5 animals per group; for % Ulcerogenicity relative to indomethacin: indomethacin = 100, 10 mg/kg; for Average severity: score 0 to 4; for Ulcer index: sum of the 3 figures
Experimental: The ulcer index was calculated according to Robert’s method.
Adult male albino rats weighing between 100 and 120 g were used. Animals were divided into groups of five animals each. Rats were fasted 20 h before drug administration. Water was given ad libitum. The control group received the vehicle (1% gum acacia) orally. Other groups received indomethacin or test compounds orally in a dose of 10 mg/kg body weight suspended in 1% gum acacia. Rats were fasted for 2 h, allowed to feed for 2 h, then fasted for another 20 h. Rats were given another two doses on the second and third days. On the fourth day, rats were sacrificed by diethyl ether; the stomach of each rat was removed, opened along the greater curvature, and rinsed with cold 0.9% saline. The stomach was stretched, by pins, on a corkboard and inspected with a 3x magnifying lens for any evidence of mucosal damage. The ulcer index was calculated according to Robert’s method. The number of mucosal damage (red spots) was counted and their severity (ulcerogenic severity) was graded from 0 to 4 according to the following score assignment:
The following figures were calculated: • –– % Incidence/10 = [number of rats showing ulcer of any grade divided by total number of rats in the group × 100]/10. • –– Average number of ulcers: number of ulcers in the group/total number of rats in the group. • –– Average severity: Σ [each ulcer multiplied by its score of severity]/number of ulcers in the group. • Ulcer index = the sum of the 3 figures. • Results are tabulated in Table 2.

cyclooxygenase-2 = biological target: cyclooxygenase-2; parameters: method as in PMID 15044055; settings: intact cell assays; cited from earlier work
cyclooxygenase-1 = biological target: cyclooxygenase-1; parameters: method as in PMID 15044055; settings: intact cell assays; cited from earlier work

Compound	melting point [°C]	inhibition in vivo at 10 mg/kg [1] [%]	change in vivo at 10 mg/kg [1] [%]	Mean increase in edema weight ± SEM [1]	% Activity relative to indomethacine [1] [%]	% ulceration in the population of test animals (gastric mucosa of rats)	Average No. of ulcer (gastric mucosa of rats)	% Incidence/10 (gastric mucosa of rats)	% Ulcerogenicity relative to indomethacin (gastric mucosa of rats)	Average severity (gastric mucosa of rats)	Ulcer index (gastric mucosa of rats)	IC50 (cyclooxygenase-2) [nM]	IC50 (cyclooxygenase-1) [nM]
Cc1nc2c(cnn2-c2ccccc2)c(=O)n1N=C1SCC(=O)N1c1ccc(Cl)cc1 [Compound 10b, 5-{[3-(4-Chlorophenyl)-4-oxo-1,3-thiazolidin-2-ylidene]amino}-6-methyl-1-phenyl-1,5-dihydro-4H-pyrazolo[3,4-d]pyrimidin-4-one]	264 to 267	58.6	8.31 ± 0.43	0.65 ± 0.022	85.99	40–60%	0.8	6	46.63%	1.25	8.05	–	–
Cc1nc2c(cnn2-c2ccccc2)c(=O)n1N=c1scc(-c2ccccc2)n1-c1ccccc1 [Compound 11a, 5-[(3,4-Diphenyl-1,3-thiazol-2(3H)-ylidene)amino]-6-methyl-1-phenyl-1,5-dihydro-4H-pyrazolo[3,4-d]pyrimidin-4-one]	258 to 260	53.5	10.5 ± 0.468	0.73 ± 0.021	78.50	40–60%	1.6	6	52.02%	1.38	8.98	–	–
Cc1nc2c(cnn2-c2ccccc2)c(=O)n1N=c1scc(-c2ccc(Br)cc2)n1-c1ccccc1 [Compound 11b, 5-{[4-(4-Bromophenyl)-3-phenyl-1,3-thiazol-2(3H)-ylidene]amino}-6-methyl-1-phenyl-1,5-dihydro-4H-pyrazolo[3,4-d]pyrimidin-4-one]	248 to 252	57.3	8.42 ± 0.482	0.67 ± 0.049	84.11	80%	1.2	8	–	1.33	10.53	–	–
Cc1nc2c(cnn2-c2ccccc2)c(=O)n1N=c1scc(-c2ccc(Cl)cc2)n1-c1ccccc1 [Compound 11c, 5-{[4-(4-Chlorophenyl)-3-phenyl-1,3-thiazol-2(3H)-ylidene]amino}-6-methyl-1-phenyl-1,5-dihydro-4H-pyrazolo[3,4-d]pyrimidin-4-one]	258 to 259	54.1	10.8 ± 0.457	0.72 ± 0.031	79.44	40–60%	1.6	6	53.47%	1.63	9.23	–	–
Cc1nc2c(cnn2-c2ccccc2)c(=O)n1N=c1scc(-c2ccccc2)n1-c1ccc(Cl)cc1 [Compound 11d, 5-{[3-(4-Chlorophenyl)-4-phenyl-1,3-thiazol-2(3H)-ylidene]amino}-6-methyl-1-phenyl-1,5-dihydro-4H-pyrazolo[3,4-d]pyrimidin-4-one]	267 to 269	56.7	8.73 ± 0.868	0.68 ± 0.065	83.18	80%	1.0	8	59.09%	1.20	10.20	–	–
Cc1nc2c(cnn2-c2ccccc2)c(=O)n1N=c1scc(-c2ccc(Br)cc2)n1-c1ccc(Cl)cc1 [Compound 11e, 5-{[4-(4-Bromophenyl)-3-(4-chlorophenyl)-1,3-thiazol-2(3H)-ylidene]amino}-6-methyl-1-phenyl-1,5-dihydro-4H-pyrazolo[3,4-d]pyrimidin-4-one]	261 to 263	66.9	8.74 ± 0.929	0.52 ± 0.031	98.14	20%	0.8	2	26% and 26.36%	1.75	4.55	–	–
Cc1nc2c(cnn2-c2ccccc2)c(=O)n1N=c1scc(-c2ccc(Cl)cc2)n1-c1ccc(Cl)cc1 [Compound 11f, 5-{[3,4-Bis(4-chlorophenyl)-1,3-thiazol-2(3H)-ylidene]amino}-6-methyl-1-phenyl-1,5-dihydro-4H-pyrazolo[3,4-d]pyrimidin-4-one]	272 to 275	65	9.29 ± 0.961	0.55 ± 0.043	95.33	40–60%	1.6	4	41.13%	1.5	7.10	–	–
O=c1c2cnn(-c3ccccc3)c2nc2cc3c(nn12)CCCC3 [Compound 17, 1-Phenyl-7,8,9,10-tetrahydropyrazolo[3′,4′:4,5]pyrimido[1,2-b]cinnolin-4(1H)-one]	142 to 145	29.9	15.8 ± 0.756	1.10 ± 0.052	43.93	–	–	–	–	–	–	–	–
CN(C)c1nc(NCc2ccccc2)c2cnn(C(C)(C)C)c2n1 [II]	–	–	–	–	–	–	–	–	–	–	–	0.9	59.6
